Results published in ChEMBL document CHEMBL3259582, “Structure-activity relationship-guided development of retinoic acid receptor-related orphan receptor gamma (RORγ)-selective inverse agonists with a phenanthridin-6(5H)-one skeleton from a liver X receptor ligand” (Bioorg Med Chem, 2014).

Experiments:
[1] = molecular target: T1, Nuclear receptor ROR-beta (Homo sapiens, UniProt Q92753); assay: Inverse agonist activity at human ROR-beta expressed in HEK293 cells after 16 hrs by luciferase reporter gene assay; assay type: cell-based
T1 sequence (Q92753 whole entry): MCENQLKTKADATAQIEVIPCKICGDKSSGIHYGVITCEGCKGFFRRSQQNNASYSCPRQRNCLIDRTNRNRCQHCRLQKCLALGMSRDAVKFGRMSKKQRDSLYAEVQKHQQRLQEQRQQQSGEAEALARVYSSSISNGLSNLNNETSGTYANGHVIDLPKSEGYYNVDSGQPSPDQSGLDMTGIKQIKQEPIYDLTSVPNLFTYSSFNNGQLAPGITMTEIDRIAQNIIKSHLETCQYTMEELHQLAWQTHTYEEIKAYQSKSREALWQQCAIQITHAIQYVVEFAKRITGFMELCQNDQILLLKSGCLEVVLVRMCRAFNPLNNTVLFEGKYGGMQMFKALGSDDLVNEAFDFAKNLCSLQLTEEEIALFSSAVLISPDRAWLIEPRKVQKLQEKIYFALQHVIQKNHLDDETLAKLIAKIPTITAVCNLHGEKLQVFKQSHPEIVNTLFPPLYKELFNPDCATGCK

[2] = molecular target: T2, Nuclear receptor ROR-gamma (Homo sapiens, UniProt P51449); assay: Inverse agonist activity at human ROR-gamma1 expressed in HEK293 cells after 16 hrs by luciferase reporter gene assay; assay type: cell-based
T2 sequence (P51449 whole entry): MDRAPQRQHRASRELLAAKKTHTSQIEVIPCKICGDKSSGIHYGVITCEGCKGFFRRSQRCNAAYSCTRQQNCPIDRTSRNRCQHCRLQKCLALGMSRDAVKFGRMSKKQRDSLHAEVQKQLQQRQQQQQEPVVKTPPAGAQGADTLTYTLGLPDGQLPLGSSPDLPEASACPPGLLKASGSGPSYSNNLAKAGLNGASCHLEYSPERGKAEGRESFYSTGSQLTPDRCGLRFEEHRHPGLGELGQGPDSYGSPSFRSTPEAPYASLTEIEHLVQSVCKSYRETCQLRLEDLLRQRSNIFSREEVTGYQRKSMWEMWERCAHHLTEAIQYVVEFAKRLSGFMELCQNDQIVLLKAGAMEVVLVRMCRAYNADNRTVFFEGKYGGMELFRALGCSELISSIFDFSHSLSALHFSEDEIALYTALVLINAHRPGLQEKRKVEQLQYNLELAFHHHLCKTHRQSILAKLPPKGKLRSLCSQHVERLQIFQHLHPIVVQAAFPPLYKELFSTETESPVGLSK

[3] = molecular target: T3, Nuclear receptor ROR-alpha (Homo sapiens, UniProt P35398); assay: Inverse agonist activity at human ROR-alpha1 expressed in HEK293 cells after 16 hrs by luciferase reporter gene assay; assay type: cell-based
T3 sequence (P35398 whole entry): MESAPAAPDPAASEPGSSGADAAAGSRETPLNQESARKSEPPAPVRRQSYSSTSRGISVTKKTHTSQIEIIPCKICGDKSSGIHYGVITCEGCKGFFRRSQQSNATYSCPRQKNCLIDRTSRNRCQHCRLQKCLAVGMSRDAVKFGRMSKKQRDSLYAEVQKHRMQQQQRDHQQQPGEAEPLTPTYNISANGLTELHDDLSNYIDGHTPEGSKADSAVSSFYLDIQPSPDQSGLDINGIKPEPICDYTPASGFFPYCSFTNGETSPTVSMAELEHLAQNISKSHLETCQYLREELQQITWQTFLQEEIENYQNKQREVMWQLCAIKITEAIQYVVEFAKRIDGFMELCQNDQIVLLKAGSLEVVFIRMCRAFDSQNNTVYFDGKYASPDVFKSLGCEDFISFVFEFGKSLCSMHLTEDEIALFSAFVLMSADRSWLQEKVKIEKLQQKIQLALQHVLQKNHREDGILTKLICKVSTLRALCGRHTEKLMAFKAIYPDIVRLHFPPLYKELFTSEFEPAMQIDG

HEK293 = assay: Cytotoxicity against HEK293 cells; assay type: cell-based; settings: human
[4] = molecular target: T4, Oxysterols receptor LXR-alpha (Homo sapiens, UniProt Q13133); assay: Agonist activity at human LXR-alpha expressed in HEK293 cells after 16 hrs by luciferase reporter gene assay
T4 sequence (Q13133 whole entry): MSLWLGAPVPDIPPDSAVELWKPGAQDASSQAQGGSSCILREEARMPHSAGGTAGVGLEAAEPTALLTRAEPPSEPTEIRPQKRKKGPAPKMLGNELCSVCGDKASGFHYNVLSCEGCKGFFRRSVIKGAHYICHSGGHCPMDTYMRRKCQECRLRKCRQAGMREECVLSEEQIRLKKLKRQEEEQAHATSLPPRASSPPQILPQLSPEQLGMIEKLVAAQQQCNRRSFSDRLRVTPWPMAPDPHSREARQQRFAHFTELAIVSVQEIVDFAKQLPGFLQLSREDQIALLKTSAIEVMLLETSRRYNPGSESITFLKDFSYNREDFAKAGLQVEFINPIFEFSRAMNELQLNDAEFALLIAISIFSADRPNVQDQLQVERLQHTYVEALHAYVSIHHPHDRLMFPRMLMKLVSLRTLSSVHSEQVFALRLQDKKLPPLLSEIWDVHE

[5] = molecular target: T5, Oxysterols receptor LXR-beta (Homo sapiens, UniProt P55055); assay: Antagonist activity at human LXR-beta expressed in HEK293 cells assessed as inhibition of T0901317-induced effect after 16 hrs by luciferase reporter gene assay; assay type: cell-based
T5 sequence (P55055 whole entry): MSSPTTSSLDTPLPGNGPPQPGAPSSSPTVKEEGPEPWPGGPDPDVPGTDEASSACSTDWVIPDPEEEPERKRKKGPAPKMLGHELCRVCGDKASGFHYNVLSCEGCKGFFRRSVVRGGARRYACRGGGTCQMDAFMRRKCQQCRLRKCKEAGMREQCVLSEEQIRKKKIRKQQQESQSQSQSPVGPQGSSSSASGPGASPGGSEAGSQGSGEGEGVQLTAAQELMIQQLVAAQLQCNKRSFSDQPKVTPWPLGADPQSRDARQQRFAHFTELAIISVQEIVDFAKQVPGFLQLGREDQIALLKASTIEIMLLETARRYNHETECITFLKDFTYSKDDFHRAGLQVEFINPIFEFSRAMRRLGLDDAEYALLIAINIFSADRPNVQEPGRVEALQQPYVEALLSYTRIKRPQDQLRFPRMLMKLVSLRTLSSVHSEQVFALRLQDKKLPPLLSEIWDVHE

[6] = molecular target: T5, Oxysterols receptor LXR-beta; assay: Agonist activity at human LXR-beta expressed in HEK293 cells after 16 hrs by luciferase reporter gene assay
[7] = molecular target: T4, Oxysterols receptor LXR-alpha; assay: Antagonist activity at human LXR-alpha expressed in HEK293 cells assessed as inhibition of T0901317-induced effect after 16 hrs by luciferase reporter gene assay; assay type: cell-based
[8] = molecular target: T5, Oxysterols receptor LXR-beta; assay: Antagonist activity at human LXR-beta expressed in HEK293 cells after 16 hrs by luciferase reporter gene assay; assay type: cell-based
[9] = molecular target: T4, Oxysterols receptor LXR-alpha; assay: Antagonist activity at human LXR-alpha expressed in HEK293 cells after 16 hrs by luciferase reporter gene assay; assay type: cell-based

Structure (SMILES) | IC50 ([1]; read-out: IC50) [µM] | IC50 ([2]; read-out: IC50) [µM] | IC50 ([3]; read-out: IC50) [µM] | further results
CCCCn1c(=O)c2ccccc2c2cc(CO)ccc21 | > 20 | > 20 | > 20 | –
CCCCn1c(=O)c2ccccc2c2cc(C(O)(C(F)(F)F)C(F)(F)F)ccc21 | 6.5 | 3.9 | 9.8 | –
CCCCn1c(=O)c2ccccc2c2cc(CC)ccc21 | 7.9 | 9.2 | 9 | –
CCCCn1c(=O)c2ccccc2c2ccccc21 | 13.4 | 14.5 | 10.2 | –
CCCCn1c(=O)c2ccccc2c2cc(C)ccc21 | 17.1 | 16.8 | 17.6 | –
CCCCn1c(=O)c2c(OC)cccc2c2cc(C(O)(C(F)(F)F)C(F)(F)F)ccc21 | – | – | – | Activity (HEK293): Toxic
CCCCn1c(=O)c2cc(OC)ccc2c2cc(C(O)(C(F)(F)F)C(F)(F)F)ccc21 | – | – | – | Activity (HEK293): Toxic
CC(=O)Nc1nc(C)c(S(=O)(=O)Nc2ccc(C(O)(C(F)(F)F)C(F)(F)F)cc2)s1 | – | – | – | EC50 [4]: Not Active; IC50 ([5]; hek293): Not Active; EC50 [6]: Not Active; IC50 ([7]; hek293): Not Active
CCCCCCCCCCCCc1ccc2c(c1)c1ccccc1c(=O)n2CCCC | – | – | – | IC50 ([1]; hek293): Not Active; IC50 ([2]; hek293): Not Active; IC50 ([3]; hek293): Not Active
CCCCn1c(=O)c2ccc(Cl)cc2c2cc(C(O)(C(F)(F)F)C(F)(F)F)ccc21 | – | – | – | EC50 [4]: Not Active; IC50 ([5]; read-out: IC50): 0.68 µM; EC50 [6]: Not Active; IC50 ([7]; read-out: IC50): > 3 µM
O=S(=O)(c1ccccc1)N(CC(F)(F)F)c1ccc(C(O)(C(F)(F)F)C(F)(F)F)cc1 [T091317] | – | – | – | IC50 ([1]; hek293): Not Active; IC50 [8]: Not Active; IC50 [9]: Not Active

Second part, led by results:

IC50 ([1]; read-out: IC50) [µM] | IC50 ([2]; read-out: IC50) [µM] | IC50 ([3]; read-out: IC50) [µM] | Structure (SMILES) | further results
12.8 | 10.4 | 11.8 | CCCCn1c(=O)c2ccccc2c2cc(C(C)(C)C)ccc21 | –
5.4 | 4.7 | 7.6 | CCCCCCn1c(=O)c2ccccc2c2cc(C(O)(C(F)(F)F)C(F)(F)F)ccc21 | –
> 20 | > 20 | > 20 | CCCCCCCCCn1c(=O)c2ccccc2c2cc(C(O)(C(F)(F)F)C(F)(F)F)ccc21 | –
> 20 | > 20 | > 20 | CCn1c(=O)c2ccccc2c2cc(C(O)(C(F)(F)F)C(F)(F)F)ccc21 | –
10.9 | 9.2 | 7.8 | CCCCn1c(=O)c2ccccc2c2cc(C(O)(C(F)(F)F)C(F)(F)F)c(OC)cc21 | –
> 10 | > 10 | > 10 | CCCCn1c(=O)c2ccccc2c2cc(C(O)(C(F)(F)F)C(F)(F)F)cc(OC)c21 | –
7.7 | 1.1 | 5.3 | CCCCn1c(=O)c2ccc(OC)cc2c2cc(C(O)(C(F)(F)F)C(F)(F)F)ccc21 | –
7.5 | 5.7 | 9.1 | CCCCn1c(=O)c2cccc(OC)c2c2cc(C(O)(C(F)(F)F)C(F)(F)F)ccc21 | –
> 20 | > 20 | > 20 | Cn1c(=O)c2ccccc2c2cc(C(O)(C(F)(F)F)C(F)(F)F)ccc21 | –
> 20 | > 20 | > 20 | O=c1[nH]c2ccc(C(O)(C(F)(F)F)C(F)(F)F)cc2c2ccccc12 | –
8.2 | 4.2 | 10.8 | CCCn1c(=O)c2ccccc2c2cc(C(O)(C(F)(F)F)C(F)(F)F)ccc21 | –
